According to patent US8802664B2 (Bioproject, priority 2010, dated 2014):

The compounds below were run against T1, human H4 receptor (Homo sapiens, UniProt Q9H3N8) (assay: [3H]Histamine binding on membranes of CHO cells stably expressing human H4 receptor).
T1 construct: expressed in transfected cells
How it was run: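 Nonspecific binding defined with 10 μM JNJ 7777120. Bound radioactivity collected on polyethyleneimine-treated GF/B filters and counted by liquid scintillation.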

Ki or IC50 activity class [nM]	SMILES
< 1000	CC(C)NC(=S)NCCSc1cccc(C(OC2CCN(C)CC2)c2nc3ccccc3[nH]2)c1 (stereo not shown) [Example 347, 1-(2-{3-[(1H-benzimidazol-2-yl)(1-methylpiperidin-4-yloxy)methyl]phenylsulfanyl}ethyl)-3-isopropylthiourea]
< 300	CN1CCC(OC(c2cccc(N3CCC(CO)C3)c2)c2nc3ccccc3s2)CC1 (stereo not shown) [Example 404, (1-{3-[benzothiazol-2-yl(1-methylpiperidin-4-yloxy)methyl]phenyl}pyrrolidin-3-yl)methanol]
< 300	CN1CCC(OC(c2cccc(-c3cccc([N+](=O)[O-])c3)c2)c2nc3ccccc3s2)CC1 (stereo not shown) [Example 97, 2-[(1-methylpiperidin-4-yloxy)(3′-nitrobiphenyl-3-yl)methyl]benzothiazole]
< 300	CN1CCC(OC(c2cccc(C#CCN3C(=O)c4ccccc4C3=O)c2)c2nc3ccccc3[nH]2)CC1 (stereo not shown) [Example 189, 2-(3-{3-[(1H-benzimidazol-2-yl)(1-methylpiperidin-4-yloxy)methyl]phenyl}prop-2-ynyl)isoindole-1,3-dione]
< 300	CN1CCC(OC(c2cccc(SCC(=O)NN)c2)c2nc3ccccc3s2)CC1 (stereo not shown) [Example 264, {3-[benzothiazol-2-yl(1-methylpiperidin-4-yloxy)methyl]phenylsulfanyl}acetic acid hydrazide]
< 300	CC(=O)OC1CCN(c2cccc(C(OC3CCN(C)CC3)c3nc4ccccc4s3)c2)CC1 (stereo not shown) [Example 413, acetic acid 1-{3-[benzothiazol-2-yl(1-methylpiperidin-4-yloxy)methyl]phenyl}piperidin-4-yl ester]
< 1000	CN1CCC(OC(c2cccc(OCCCN3CCOCC3)c2)c2nc3ccccc3s2)CC1 (stereo not shown) [Example 350, 2-{(1-methylpiperidin-4-yloxy)[3-(3-morpholin-4-yl-propoxy)phenyl]methyl}benzothiazole]
< 30	CN1CCC(OC(c2cccc(I)c2)c2nc3ccccc3s2)CC1 (single isomer, unassigned) [Example 117, 2-[(3-iodophenyl)(1-methylpiperidin-4-yloxy)methyl]benzothiazole]
< 30	CN1CCC(OC(c2cccc(SCCNC(=N)N)c2)c2nc3ccccc3[nH]2)CC1 (stereo not shown) [Example 278, N-(2-{3-[(1H-benzimidazol-2-yl)(1-methylpiperidin-4-yloxy)methyl]phenylsulfanyl}ethyl)guanidine]
< 30	CN1CCC(OC(c2cccc(CCCCN)c2)c2nc3ccccc3s2)CC1 (stereo not shown) [Example 366, 4-{3-[benzothiazol-2-yl(1-methylpiperidin-4-yloxy)methyl]phenyl}butylamine]
< 300	CN1CCC(OC(c2cccc(SCCCCCCN)c2)c2nc3ccccc3[nH]2)CC1 (stereo not shown) [Example 451]
< 1000	CN1CCC(OC(c2cccc(CCc3c[nH]cn3)c2)c2nc3ccccc3[nH]2)CC1 (stereo not shown) [Example 412, 2-[{3-[2-(1H-imidazol-4-yl)ethyl]phenyl}(1-methylpiperidin-4-yloxy)methyl]-1H-benzimidazole]
< 1000	CN1CCC(OC(c2ccc(F)c(OC(F)(F)F)c2)c2nc3ccccc3[nH]2)CC1 (stereo not shown) [Example 518]
< 1000	Cc1cccc(C(NC2CCN(C)CC2)c2nc3ccccc3[nH]2)c1 (stereo not shown) [Example 84, [(1H-benzimidazol-2-yl)(m-tolyl)methyl](1-methylpiperidin-4-yl)amine]
< 300	CN1CCC(OC(c2nc3cccc(F)c3[nH]2)c2cc(OC(F)(F)F)ccc2F)CC1 (stereo not shown) [Example 529]
< 300	C#Cc1cccc(C(OC2CCN(C)CC2)c2nc3ccccc3[nH]2)c1 (stereo not shown) [Example 195, 2-[(3-ethynylphenyl)(1-methylpiperidin-4-yloxy)methyl]-1H-benzimidazole]
< 30	CN1CCC(OC(c2cccc(OCC=CCO)c2)c2nc3ccccc3s2)CC1 (stereo not shown) [Example 422, 4-{3-[benzothiazol-2-yl(1-methylpiperidin-4-yloxy)methyl]phenoxy}but-2-en-1-ol]
< 30	CN1CCC(NC(c2cccc(OCCF)c2)c2nc3ccccc3[nH]2)CC1 (stereo not shown) [Example 180, {(1H-benzimidazol-2-yl)[3-(2-fluoro-ethoxy)phenyl]methyl}(1-methylpiperidin-4-yl)amine]
< 300	CN1CC(COC(c2cccc(Br)c2)c2nc3ccccc3[nH]2)C1 (stereo not shown) [Example 506]
< 300	CC(=O)c1ccc(-c2cccc(C(OC3CCN(C)CC3)c3nc4ccccc4[nH]3)c2)cc1 (stereo not shown) [Example 108, 1-{3′-[(1H-benzimidazol-2-yl)(1-methylpiperidin-4-yloxy)methyl]biphenyl-4-yl}ethanone]

Continued, compound first:

SMILES	Ki or IC50 activity class [nM]
CN1CCC(OC(c2cccc(N3CCC(O)CC3)c2)c2nc3ccccc3s2)CC1 (stereo not shown) [Example 411, 1-{3-[benzothiazol-2-yl(1-methylpiperidin-4-yloxy)methyl]phenyl}piperidin-4-ol]	< 1000
CN1CCC(OC(c2cccc(-c3cccnc3)c2)c2nc3ccccc3s2)CC1 (stereo not shown) [Example 63, 2-[(1-methylpiperidin-4-yloxy)(3-pyridin-3-ylphenyl)methyl]benzothiazole]	< 300
CN1CCC(OC(c2cccc(S(C)(=O)=O)c2)c2nc3ccccc3s2)CC1 (stereo not shown) [Example 203, 2-[(3-methanesulfonylphenyl)(1-methylpiperidin-4-yloxy)methyl]benzothiazole]	< 1000
CCCOc1cccc(C(OC2CCN(C)CC2)c2nc3ccccc3s2)c1 (stereo not shown) [Example 26, 2-[(1-methylpiperidin-4-yloxy)(3-propoxy-phenyl)methyl]benzothiazole]	< 30
CCOCCn1c(C(OC2CCN(C)CC2)c2cccc(I)c2)nc2ccccc21 (stereo not shown) [Example 497, 1-(2-ethoxyethyl)-2-[(3-iodophenyl)(1-methylpiperidin-4-yloxy)methyl]-1H-benzimidazole]	< 1000
Cc1ccc(C(OC2CCN(C)CC2)c2nc3ccccc3[nH]2)c(F)c1 (stereo not shown) [Example 513]	< 30
CN1CCC(OC(c2cccc(OCCN3CCN(C(=O)OC(C)(C)C)CC3)c2)c2nc3ccccc3s2)CC1 (stereo not shown) [Example 328, 4-(2-{3-[benzothiazol-2-yl(1-methylpiperidin-4-yloxy)methyl]phenoxy}ethyl)piperazine-1-carboxylic acid tert-butyl ester]	< 30
CN1CCC(OC(c2cccc(OCCNCC(=O)OC(C)(C)C)c2)c2nc3ccccc3s2)CC1 (stereo not shown) [Example 370, (2-{3-[benzothiazol-2-yl(1-methylpiperidin-4-yloxy)methyl]phenoxy}ethylamino)acetic acid tert-butyl ester]	< 1000
COc1ccccc1-c1cccc(C(OC2CCN(C)CC2)c2nc3ccccc3s2)c1 (stereo not shown) [Example 96, 2-[(2′-methoxybiphenyl-3-yl)(1-methylpiperidin-4-yloxy)methyl]benzothiazole]	< 300
CN1CCC(OC(c2cccc(OCCCC(F)(F)F)c2)c2nc3ccccc3s2)CC1 (stereo not shown) [Example 169, 2-{(1-methylpiperidin-4-yloxy)[3-(4,4,4-trifluoro-butoxy)phenyl]methyl}benzothiazole]	< 1000
C=CCCCOc1cccc(C(OC2CCN(C)CC2)c2nc3ccccc3s2)c1 (stereo not shown) [Example 168, 2-[(1-methylpiperidin-4-yloxy)(3-pent-4-enyloxy-phenyl)methyl]benzothiazole]	< 300
CN1CCC(OC(c2cccc(OC3CCNC3)c2)c2nc3ccccc3[nH]2)CC1 (stereo not shown) [Example 461]	< 300
CN1CCC(OC(c2cccc(N3CCC(N(C)C)C3)c2)c2nc3ccccc3s2)CC1 (stereo not shown) [Example 484]	< 30
CN1CCC(OC(c2cccc(SCC3CNC(=O)O3)c2)c2nc3ccccc3[nH]2)CC1 (stereo not shown) [Example 457]	< 30
CN1CCC(OC(c2cccc(OCCCCN3CCOCC3)c2)c2nc3ccccc3s2)CC1 (stereo not shown) [Example 322, 2-{(1-methylpiperidin-4-yloxy)[3-(4-morpholin-4-yl-butoxy)phenyl]methyl}benzothiazole]	< 1000
CN1CCC(OC(c2cccc(SCC(N)=O)c2)c2nc3ccccc3s2)CC1 (stereo not shown) [Example 263, 2-{3-[benzothiazol-2-yl(1-methylpiperidin-4-yloxy)methyl]phenylsulfanyl}acetamide]	< 1000
CCCCOc1cccc(C(NC2CCN(C)CC2)c2nc3ccccc3s2)c1 (stereo not shown) [Example 91, [benzothiazol-2-yl(3-butoxyphenyl)methyl](1-methylpiperidin-4-yl)amine]	< 30
CN1CCC(OC(c2cccc(OCCCCCN3CCN(C(=O)OC(C)(C)C)CC3)c2)c2nc3ccccc3[nH]2)CC1 (stereo not shown) [Example 391, 4-(5-{3-[(1H-benzimidazol-2-yl)(1-methylpiperidin-4-yloxy)methyl]phenoxy}pentyl)piperazine-1-carboxylic acid tert-butyl ester]	< 1000
CN1CCC(OC(c2cccc(OCCCN)c2)c2nc3ccccc3s2)CC1 (stereo not shown) [Example 311, 3-{3-[benzothiazol-2-yl(1-methylpiperidin-4-yloxy)methyl]phenoxy}propylamine]	< 300
CN1CCC(OC(c2ccc3occc3c2)c2nc3ccccc3s2)CC1 (stereo not shown) [Example 46, 2-[benzofuran-5-yl(1-methylpiperidin-4-yloxy)methyl]benzothiazole]	< 300
CC(=O)COCC#Cc1cccc(C(OC2CCN(C)CC2)c2nc3ccccc3s2)c1 (stereo not shown) [Example 275, 1-(3-{3-[benzothiazol-2-yl(1-methylpiperidin-4-yloxy)methyl]phenyl}prop-2-ynyloxy)-propan-2-one]	< 300
CN1CCC(OC(c2cccc(SCc3ccccc3)c2)c2nc3ccccc3[nH]2)CC1 (stereo not shown) [Example 150, 2-[(3-benzylsulfanylphenyl)(1-methylpiperidin-4-yloxy)methyl]-1H-benzimidazole]	< 300
CN1CCC(OC(c2cccc(C=CC#N)c2)c2nc3ccccc3s2)CC1 (stereo not shown) [Example 217, 3-{3-[benzothiazol-2-yl(1-methylpiperidin-4-yloxy)methyl]phenyl}acrylonitrile]	< 300
